Results: ChEMBL document CHEMBL5316301, “Dual Nicotinamide Phosphoribosyltransferase (NAMPT) and Indoleamine 2,3-Dioxygenase 1 (IDO1) Inhibitors for the Treatment of Drug-Resistant Nonsmall-Cell Lung Cancer” (J Med Chem, 2023)

Tests used:
[1] = molecular target: Nicotinamide phosphoribosyltransferase (Homo sapiens, UniProt P43490); test: Inhibition of recombinant NAMPT (unknown origin) incubated for 60 mins by SpectraMax microplate reader analysis
[2] = molecular target: T1, Indoleamine 2,3-dioxygenase 1 (Homo sapiens, UniProt P14902); test: Inhibition of human recombinant IDO1 assessed as reduction in N-formylkynurenine formation using L-tryptophan as substrate preincubated for 30 mins followed by substrate addition and measured after 10 mins by SpectraMax microplate reader analysis
T1 sequence (P14902 whole entry): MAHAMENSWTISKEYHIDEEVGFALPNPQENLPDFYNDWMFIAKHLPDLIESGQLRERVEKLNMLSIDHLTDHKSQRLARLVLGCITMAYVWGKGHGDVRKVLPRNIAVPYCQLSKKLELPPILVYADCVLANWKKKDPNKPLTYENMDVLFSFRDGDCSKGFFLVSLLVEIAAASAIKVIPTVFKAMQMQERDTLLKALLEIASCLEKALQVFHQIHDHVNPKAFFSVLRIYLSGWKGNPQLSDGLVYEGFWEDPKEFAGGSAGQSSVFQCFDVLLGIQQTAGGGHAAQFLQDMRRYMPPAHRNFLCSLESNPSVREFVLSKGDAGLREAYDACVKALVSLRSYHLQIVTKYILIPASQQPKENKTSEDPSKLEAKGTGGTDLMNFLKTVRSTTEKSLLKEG

[3] = molecular target: T1, Indoleamine 2,3-dioxygenase 1; test: Inhibition of human recombinant IDO1 in human HeLa cells assessed as reduction in N-formylkynurenine formation using L-tryptophan as substrate preincubated for 24 hrs followed by substrate addition and measured after 30 mins; type: cell-based

Sequence of Nicotinamide phosphoribosyltransferase (P43490 whole entry): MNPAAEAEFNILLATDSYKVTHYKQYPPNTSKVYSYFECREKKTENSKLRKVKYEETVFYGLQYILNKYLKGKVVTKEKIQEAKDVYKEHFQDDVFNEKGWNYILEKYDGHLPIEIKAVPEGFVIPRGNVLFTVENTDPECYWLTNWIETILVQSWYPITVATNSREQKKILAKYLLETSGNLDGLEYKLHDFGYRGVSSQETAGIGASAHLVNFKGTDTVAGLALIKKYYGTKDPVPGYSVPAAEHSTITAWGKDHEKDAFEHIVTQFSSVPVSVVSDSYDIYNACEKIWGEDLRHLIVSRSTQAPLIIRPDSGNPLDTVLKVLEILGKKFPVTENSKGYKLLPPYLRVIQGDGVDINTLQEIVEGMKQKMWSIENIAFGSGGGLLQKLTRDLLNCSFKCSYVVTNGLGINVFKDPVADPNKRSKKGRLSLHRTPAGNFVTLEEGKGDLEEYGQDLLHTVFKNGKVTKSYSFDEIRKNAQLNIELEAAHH

Compound	IC50 [1] [nM]	IC50 [2] [nM]	IC50 [3] [nM]
O=C(NCc1ccc(CNc2nonc2/C(=N/O)Nc2ccc(F)c(Br)c2)cc1)c1ccc2nccn2c1	4880	> 1000	–
O=C(CCCCNc1nonc1/C(=N/O)Nc1ccc(F)c(Br)c1)Nc1ccc(CNC(=O)c2ccc3nccn3c2)cc1	–	750	649
O=C(CCCNc1nonc1/C(=N/O)Nc1ccc(F)c(Br)c1)Nc1ccc(CNC(=O)c2ccc3nccn3c2)cc1	> 10000	730	663
O=C(NCCCCNc1nonc1/C(=N/O)Nc1ccc(F)c(Br)c1)c1ccc2nccn2c1	–	660	520
O=C(NCCCCCNc1nonc1/C(=N/O)Nc1ccc(F)c(Br)c1)c1ccc2nccn2c1	–	858	670
O=C(NCCCCNc1nonc1/C(=N/O)Nc1ccc(F)c(Br)c1)c1ccc(CNC(=O)c2ccc3nccn3c2)cc1	–	835	677

Further lines, results first:

IC50 [1] [nM]	IC50 [2] [nM]	IC50 [3] [nM]	Compound
> 10000	> 1000	–	O=C(Nc1ccc(CCNc2nonc2/C(=N/O)Nc2ccc(F)c(Br)c2)cc1)c1ccc2nccn2c1
–	> 1000	> 1000	O=C(NCCNc1nonc1/C(=N/O)Nc1ccc(F)c(Br)c1)c1ccc2nccn2c1
–	> 1000	> 1000	O=C(NCCCNc1nonc1/C(=N/O)Nc1ccc(F)c(Br)c1)c1ccc2nccn2c1
